Patent US20080318880A1, “Neoadjuvant treatment of Breast Cancer” (The University of Manitoba, priority 2002, published 2008)
Values joined by “and” are separate entries in the source; they are usually repeats but may differ in a detail not shown here. Identical values can stand only once.

Tested on: inflammatory or T3 to T4 breast cancer
Test: Phase II clinical trial of neoadjuvant DPPE plus anthracycline/taxane chemotherapy
Format: in vivo, human
Description: In the neoadjuvant treatment of inflammatory or T3 to T4 breast cancer, the diphenyl compound preferably is used in an amount of about 3 to about 10 mg/kg of patient, administered intravenously over a period of about 30 to about 90 minutes prior to administration of the chemotherapeutic agents and continuing for the period of administration of the chemotherapy agent. In the specific Phase II clinical trial described herein, there was employed 6 mg/kg of DPPE in the form of its hydrochloride salt, administered intravenously as an aqueous solution thereof over 80 minutes, with the last twenty minutes being accompanied by infusion of the chemotherapeutic agents, followed by the intravenous administration of an aqueous solution at a dose of 2.5 mg/kg of DPPE for 180 minutes accompanied by the infusion of Taxol® or for 60 minutes accompanied by the infusion of Taxotere®. The chemotherapy agents which are employed herein preferably are used in a total amount of 75 to about 225 mg/M^2 of patient consistent with the identity of the chemotherapy agent. The chemotherapeutic agents may be administered in an amount of about 50 to about 60 mg/M^2 of patient for doxorubicin or epirubicin, about 175 to about 225 mg/M^2 of Taxol® and about 75 to about 100 mg/M^2 of Taxotere®. In the specific Phase II clinical trial described herein, there was employed 50 mg/M^2 of doxorubicin or epirubicin, and 175 mg/M^2 of Taxol® or 75 mg/M^2 of Taxotere®, administered over the last 20 minutes of infusion of the DPPE solution and over a further 180 minutes for Taxol® or 60 minutes for Taxotere®, accompanied by infusion of a 2.5 mg/kg of DPPE solution. As noted above, patients with inflammatory breast cancer or T3 to T4 breast cancer are subjected to a number of cycles of chemotherapy at predetermined intervals to reduce the size of the tumor to an operable size. The number of cycles for each patient is generally about 5 to about 8 cycles, with about 21 to about 28 days between each cycle. In the Phase II clinical trial, patients were subjected to 6 cycles at time intervals of 21 days. A Phase II clinical trial was carried out in which patients (N=8) with inflammatory (N=7) and T3 to T4 (N=1) breast cancer were treated with a combination of DPPE and epirubicin (EPI)/Taxol® (N=5), a combination of DPPE and doxorubicin (DOX)/Taxol® (N=2) and DPPE and a combination of DPPE and epirubicin/Taxotere® (N=1). DPPE was administered at a dose of […] over 80 minutes with a combination of epirubicin or doxorubicin at a dose of 50 mg/M^2 and Taxol® at a dose of 175 mg/M^2 or Taxotere® at a dose of 75 mg/M^2 over the last 20 minutes and during a further 180 minutes for Taxol® or 60 minutes for Taxotere®, at a dose of 2.5 mg/kg. The treatment was repeated at 21 day intervals for 6 cycles. The eight patients with inflammatory or T3 to T4 breast cancer had no previous chemo- or radiotherapy. When the chemotherapy cycles were complete, the cancerous tissue was removed and the patients observed. The results obtained are shown in Table I. In this Table, the abbreviation TTP stands for time to progression and the abbreviation OS stands for overall survival. […] This patient remains disease-free at 55+ months.

[1] = 8 patients pooled: 5 DPPE/EPI/TAXOL, 2 DPPE/DOX/TAXOL, 1 DPPE/EPI/TAXOTERE
[2] = number of patients of 8, first figure of cell, same regimens
[3] = number of patients of 8, second figure of cell, marked *, same regimens

SMILES: CCN(CC)CCOc1ccc(Cc2ccccc2)cc1 [DPPE, N,N-diethyl-2-[4-(phenylmethyl)-phenoxy]ethanamine]
- OS (overall survival), median [1]: 43+ mos.
- TTP (time to progression), median [1]: 21 mos.
- overall outcome of trial (DPPE along with doxorubicin/epirubicin and Taxol/Taxotere): effective neoadjuvant treatment which lead to long term survival post surgery
- Response CR (number of patients of 8, first figure of cell (not marked as pathological criteria), DPPE 6 mg/M^2 over 80 min + epirubicin or doxorubicin 50 mg/M^2 + Taxol 175 mg/M^2 or Taxotere 75 mg/M^2, 6 cycles at 21 day intervals): 4
- Response NR [2]: 1
- Response PR [2]: 3
- Response CR, pathological criteria (number of patients of 8, second figure of cell, marked * (pathological criteria), same regimens): 2
- Response NR, pathological criteria [3]: 2
- Response PR, pathological criteria [3]: 4
- response of individual patient (third patient, only high-grade cells on cytology): clinical/pathological complete remission
- disease-free time of individual patient (third patient, with complete remission): ≥ 55 months
- high-grade tumor component post-surgery (two long-term survivors with mixed high-grade tumors pre-treatment): no high-grade component post-surgery
- survival of individual long-term survivors (two patients with mixed high-grade tumors pre-treatment): ≥ 45 months and ≥ 53 months
